Results taken from US20180296453A1, “Oral Care Product and Methods of Use and Manufacture Thereof” (Colgate-Palmolive Company, priority 2008, published 2018).

How the values were obtained:
S. sanguis = test: Ammonia production by S. sanguis at pH 4.0; format: cell-based; details: 5 millimolar, pH 4.0, 0.1% sucrose, 37° C., 30 minutes
Procedure: An overnight culture of S. sanguis was grown at 37° C. in trypticase soy broth (Becton Dickinson, Sparks, Md.). The culture was centrifuged at 5,000 rpm for 5 minutes at 1 milliliter at a time into preweighed tubes in order to accumulate approximately 5 milligrams of wet pellet weight. The pellet was then resuspended into 20 millimolar potassium phosphate buffer (JT Baker, Phillipsburg, N.J.), pH 4.0, to simulate a stressed environment for the bacterial cell where ammonia would be produced for survival. The final concentration was 5 milligram per milliliter. To this final concentration, a 5 millimolar final concentration of L-arginine, L-citrulline, or L-ornithine was added along with a 0.1% final concentration of sucrose (VWR, West Chester, Pa.). This mixture was then incubated at 37° C. in a shaking water bath for 30 minutes before ammonia production was determined.
In order to analyze for ammonia, an Ammonia Assay kit was used from Diagnostic Chemicals Limited (Oxford, Conn.). The intended use of this specific kit is for the in vitro quantification of ammonia in plasma, but the procedure was modified in order to determine and quantify the ammonia production in plaque and/or bacteria.

[1] = cited from earlier work

Structure (SMILES) | Ammonia (S. sanguis; Mean of 6 trials) [ppm] | Ammonia (S. sanguis; Trial 1) [ppm] | Ammonia (S. sanguis; Trial 2) [ppm] | Ammonia (S. sanguis; Trial 3) [ppm] | Ammonia (S. sanguis; Trial 4) [ppm] | Ammonia (S. sanguis; Trial 5) [ppm] | Ammonia (S. sanguis; Trial 6) [ppm] | solubility in water (in words) [1]
N=C(N)NCCC[C@H](N)C(=O)O [L-Arginine, L-arginine] | 1.06 | 0.509 | 0.866 | 2.20 | 1.62 | 0.5 | 0.679 | –
NC(=O)NCCC[C@H](N)C(=O)O [L-Citrulline, L-citrulline] | 0.951 | 0.185 | 0.346 | 0.332 | 0.194 | 0.226 | 0.951 | –
NCCC[C@H](N)C(=O)O [L-Ornithine, L-ornithine] | 0.134 | 0.185 | 0.260 | 0.047 | 0.0 | 0.181 | 0.135 | –
Oc1cc(Cl)ccc1Oc1ccc(Cl)cc1Cl [triclosan, 5-chloro-2-(2,4-dichlorophenoxy)phenol] | – | – | – | – | – | – | – | only slightly soluble in water
